Laboratory results taken from patent US20250205344A1, “2,4-DIOXOTETRAHYDROPYRIMIDINYL DERATIVES AS DEGRONS IN PROTACS” (GLAXOSMITHKLINE INTELLECTUAL PROPERTY DEVELOPMENT LIMITED, priority 2022, published 2025).
Counter-ions that a name gives are not always drawn.

Biological target: T1, Androgen Receptor (Homo sapiens, UniProt P10275, T878A)
T1 construct: the AR gene was modified, using CRISPR/Cas9 editing, so the expressed AR protein included an 11 amino acid HiBiT tag; endogenous in cells; host or cells: clonal LnCaP-derived line, AR gene edited by CRISPR/Cas9
Assay: Androgen Receptor Degradation Assay (Nano-Glo HiBiT)
Format: cell-based
Settings: LNCaP, 18 h, HiBiT-tagged AR in human LnCaP cells, read-out: mean asymptote max
Outline: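 LnCaP cells with CRISPR-knocked-in N-terminal HiBiT-tagged AR (10,000/well) treated 18 h at 37 °C with PROTACs over 11 threefold concentrations; lytic HiBiT luminescence normalised to DMSO (0%) and cell-free (100%) controls. Relative DC50 = 4-parameter fit inflection; absolute DC50 = 50% degradation interpolation; Dmax = maximum observed degradation.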

T1 sequence (P10275 whole entry T878A): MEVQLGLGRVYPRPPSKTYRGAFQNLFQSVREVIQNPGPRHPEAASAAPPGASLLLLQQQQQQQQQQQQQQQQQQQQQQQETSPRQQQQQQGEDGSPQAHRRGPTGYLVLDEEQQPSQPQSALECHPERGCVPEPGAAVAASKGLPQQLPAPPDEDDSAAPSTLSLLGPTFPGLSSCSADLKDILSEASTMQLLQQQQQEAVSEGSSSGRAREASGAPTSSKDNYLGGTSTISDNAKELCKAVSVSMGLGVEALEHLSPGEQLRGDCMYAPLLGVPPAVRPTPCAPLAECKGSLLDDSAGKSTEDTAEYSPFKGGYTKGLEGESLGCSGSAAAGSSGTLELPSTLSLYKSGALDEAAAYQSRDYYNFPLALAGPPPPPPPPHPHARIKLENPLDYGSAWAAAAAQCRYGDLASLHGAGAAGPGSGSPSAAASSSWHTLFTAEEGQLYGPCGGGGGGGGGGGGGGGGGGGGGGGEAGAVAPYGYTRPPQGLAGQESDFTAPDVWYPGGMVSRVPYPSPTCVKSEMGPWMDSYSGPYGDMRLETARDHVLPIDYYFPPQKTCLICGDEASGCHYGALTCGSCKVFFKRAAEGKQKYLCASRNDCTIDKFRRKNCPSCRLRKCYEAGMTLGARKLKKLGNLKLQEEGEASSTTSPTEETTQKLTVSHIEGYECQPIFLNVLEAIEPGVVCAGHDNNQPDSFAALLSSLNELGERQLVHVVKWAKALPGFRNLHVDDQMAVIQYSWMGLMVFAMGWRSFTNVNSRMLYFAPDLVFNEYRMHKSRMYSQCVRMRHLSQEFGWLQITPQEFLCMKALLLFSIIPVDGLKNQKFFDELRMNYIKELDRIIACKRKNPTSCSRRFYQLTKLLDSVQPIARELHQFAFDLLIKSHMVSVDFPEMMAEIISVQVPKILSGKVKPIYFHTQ
T1 sequence (Q96SW2 whole entry partner): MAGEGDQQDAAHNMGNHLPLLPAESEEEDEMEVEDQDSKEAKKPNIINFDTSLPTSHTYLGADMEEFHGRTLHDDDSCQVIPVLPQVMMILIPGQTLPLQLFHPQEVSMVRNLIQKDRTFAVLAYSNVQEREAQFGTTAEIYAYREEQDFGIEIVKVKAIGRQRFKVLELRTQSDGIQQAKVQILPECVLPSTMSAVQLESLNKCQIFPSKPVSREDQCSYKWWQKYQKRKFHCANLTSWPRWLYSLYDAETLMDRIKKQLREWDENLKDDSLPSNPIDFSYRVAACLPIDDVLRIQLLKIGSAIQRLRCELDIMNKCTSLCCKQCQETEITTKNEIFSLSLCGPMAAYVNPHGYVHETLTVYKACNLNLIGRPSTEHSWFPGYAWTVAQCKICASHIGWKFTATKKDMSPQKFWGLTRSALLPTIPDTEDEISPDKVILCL
T1 sequence (Q16531 whole entry partner): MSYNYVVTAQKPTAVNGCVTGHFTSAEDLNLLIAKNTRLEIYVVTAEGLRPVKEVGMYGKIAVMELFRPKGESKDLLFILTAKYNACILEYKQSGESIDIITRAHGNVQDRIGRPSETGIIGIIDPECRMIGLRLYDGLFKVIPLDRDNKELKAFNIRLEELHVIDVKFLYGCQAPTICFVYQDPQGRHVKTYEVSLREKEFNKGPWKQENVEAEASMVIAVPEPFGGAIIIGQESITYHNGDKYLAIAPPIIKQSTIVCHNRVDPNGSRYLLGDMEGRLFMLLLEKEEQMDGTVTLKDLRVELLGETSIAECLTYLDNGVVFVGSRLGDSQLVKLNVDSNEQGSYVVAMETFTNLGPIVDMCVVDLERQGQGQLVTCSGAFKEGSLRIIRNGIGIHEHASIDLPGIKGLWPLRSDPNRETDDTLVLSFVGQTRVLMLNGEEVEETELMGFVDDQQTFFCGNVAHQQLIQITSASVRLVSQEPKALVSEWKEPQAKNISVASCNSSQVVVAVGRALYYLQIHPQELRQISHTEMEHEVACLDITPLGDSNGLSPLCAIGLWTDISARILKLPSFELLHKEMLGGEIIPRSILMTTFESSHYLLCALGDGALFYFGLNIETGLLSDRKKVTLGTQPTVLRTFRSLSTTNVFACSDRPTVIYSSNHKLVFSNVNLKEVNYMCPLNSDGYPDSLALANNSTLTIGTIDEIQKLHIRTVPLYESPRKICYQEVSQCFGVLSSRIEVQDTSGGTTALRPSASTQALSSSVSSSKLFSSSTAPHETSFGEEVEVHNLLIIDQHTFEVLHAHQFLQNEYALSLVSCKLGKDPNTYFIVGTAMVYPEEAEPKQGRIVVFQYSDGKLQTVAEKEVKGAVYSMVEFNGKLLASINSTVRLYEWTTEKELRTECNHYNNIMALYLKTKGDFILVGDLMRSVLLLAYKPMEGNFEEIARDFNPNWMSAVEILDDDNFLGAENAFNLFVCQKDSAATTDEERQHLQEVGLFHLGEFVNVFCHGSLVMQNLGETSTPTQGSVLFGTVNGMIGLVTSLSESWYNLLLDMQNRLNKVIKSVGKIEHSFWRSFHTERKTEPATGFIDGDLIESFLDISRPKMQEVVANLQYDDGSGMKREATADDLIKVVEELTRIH

Row | Structure (SMILES) | Dmax [%]
1 | C[C@@H]1CN(C(=O)Nc2ccc(N3CCC(CN4CCC(n5ncc6c(N7CCC(=O)NC7=O)cccc65)CC4)CC3)nc2)[C@@H](C)CN1c1ccc(C#N)c(Cl)c1 [EAR138, (2S,5R)-4-(3-Chloro-4-cyanophenyl)-N-(6-(4-((4-(4-(2,4-dioxotetrahydropyrimidin-1(2H)-yl)-1H-indazol-1-yl)piperidin-1-yl)methyl)piperidin-1-yl)pyridin-3-yl)-2,5-dimethylpiperazine-1-carboxamide, formic acid salt] | ≥ 50
2 | CC1(C)[C@H](NC(=O)c2ccc(N3CCC(CN4CCC(n5ccc6c(N7CCC(=O)NC7=O)cncc65)CC4)CC3)nc2)C(C)(C)[C@H]1Oc1ccc(C#N)c(Cl)c1 [EAR20, N-((1r,3r)-3-(3-Chloro-4-cyanophenoxy)-2,2,4,4-tetramethylcyclobutyl)-6-(4-((4-(4-(2,4-dioxotetrahydropyrimidin-1(2H)-yl)-1H-pyrrolo[2,3-c]pyridin-1-yl)piperidin-1-yl)methyl)piperidin-1-yl)nicotinamide] | ≥ 50
3 | CC1(C)C(=O)N(c2ccc(C#N)c(C(F)(F)F)c2)C(=S)N1c1ccc(OCCCN2CCC(n3ccc4c(N5CCC(=O)NC5=O)cccc43)CC2)cc1 [EAR103, 4-(3-(4-(3-(4-(4-(2,4-Dioxotetrahydropyrimidin-1(2H)-yl)-1H-indol-1-yl)piperidin-1-yl)propoxy)phenyl)-4,4-dimethyl-5-oxo-2-thioxoimidazolidin-1-yl)-2-(trifluoromethyl)benzonitrile formate] | ≥ 50
4 | C[C@@H]1CN(c2ccc(C#N)c(Cl)c2)[C@@H](C)CN1C(=O)Nc1ccc(N2CCC(CCN3CCC(n4ccc5c(N6CCC(=O)NC6=O)cccc54)CC3)CC2)nc1 [EAR117, (2R,5S)-4-(3-Chloro-4-cyanopheny)-N-(6-(4-(2-(4-(4-(2,4-dioxotetrahydropyrimidin-1(2H)-yl)-1H-indol-1-yl)piperidin-1-yl)ethyl)piperidin-1-yl)pyridin-3-yl)-2,5-dimethylpiperazine-1-carboxamide] | ≥ 50
5 | C[C@@H]1CN(c2ccc(C#N)c(Cl)c2)[C@@H](C)CN1C(=O)c1cnc(N2CCC(CN3CCC(n4ncc5c(N6CCC(=O)NC6=O)cncc54)CC3)CC2)cn1 [EAR150, 2-Chloro-4-((2S,5R)-4-(5-(4-((4-(4-(2,4-dioxotetrahydropyrimidin-1(2H)-yl)-1H-pyrazolo[3,4-c]pyridin-1-yl)piperidin-1-yl)methyl)piperidin-1-yl)pyrazine-2-carbonyl)-2,5-dimethylpiperazin-1-yl)benzonitrile] | ≥ 50
6 | C[C@@H]1CN(c2ccc(C#N)c(Cl)c2)[C@@H](C)CN1C(=O)c1ccc(OCCN2CCC(n3ncc4c(N5CCC(=O)NC5=O)cncc43)CC2)nc1 [EAR174, 2-Chloro-4-((2S,5R)-4-(6-(2-(4-(4-(2,4-dioxotetrahydropyrimidin-1(2H)-yl)-1H-pyrazolo[3,4-c]pyridin-1-yl)piperidin-1-yl)ethoxy)nicotinoyl)-2,5-dimethylpiperazin-1-yl)benzonitrile] | ≥ 50
7 | N#Cc1ccc(O[C@H]2CC[C@H](NC(=O)c3ccc(N4CCC(CN5CCC(n6ncc7c(N8CCC(=O)NC8=O)cccc76)CC5)CC4)nc3)CC2)cc1Cl [EAR42, N-((1r,4r)-4-(3-Chloro-4-cyanophenoxy)cyclohexyl)-6-(4-((4-(4-(2,4-dioxotetrahydropyrimidin-1(2H)-yl)-1H-indazol-1-yl)piperidin-1-yl)methyl)piperidin-1-yl)nicotinamide hydrochloride] | ≥ 50
8 | N#Cc1ccc(O[C@H]2CC[C@H](NC(=O)c3ccc(N4CCC(CN5CCC(n6ccc7c(N8CCC(=O)NC8=O)cncc76)CC5)CC4)nc3)CC2)cc1Cl [EAR50, N-((1r,4r)-4-(3-Chloro-4-cyanophenoxy)cyclohexyl)-6-(4-((4-(4-(2,4-dioxotetrahydropyrimidin-1(2H)-yl)-1H-pyrrolo[2,3-c]pyridin-1-yl)piperidin-1-yl)methyl)piperidin-1-yl)nicotinamide hydrochloride] | ≥ 50
9 | CC(C)n1ccc2c(N3CCC(=O)NC3=O)cc(C(=O)N3CCN(CCCCCCc4ccc(C(=O)N[C@H]5C(C)(C)[C@H](Oc6ccc(C#N)c(C(F)(F)F)c6)C5(C)C)cc4)CC3)cc21 [EAR87, N-((1r,3r)-3-(4-Cyano-3-(trifluoromethyl)phenoxy)-2,2,4,4-tetramethylcyclobutyl)-4-(6-(4-(4-(2,4-dioxotetrahydropyrimidin-1(2H)-yl)-1-isopropyl-1H-indole-6-carbonyl)piperazin-1-yl)hexyl)benzamide] | ≥ 50
10 | CC(C)n1ccc2c(N3CCC(=O)NC3=O)cc(C(=O)N3CCC4(CCN(Cc5ccc(C(=O)N[C@H]6CC[C@H](Oc7ccc(C#N)c(Cl)c7)CC6)cc5)CC4)CC3)cc21 [EAR84, N-((1r,4r)-4-(3-Chloro-4-cyanophenoxy)cyclohexyl)-4-((9-(4-(2,4-dioxotetrahydropyrimidin-1(2H)-yl)-1-isopropyl-1H-indole-6-carbonyl)-3,9-diazaspiro[5.5]undecan-3-yl)methyl)benzamide] | ≥ 50
11 | N#Cc1ccc(O[C@H]2CC[C@H](NC(=O)c3ccc(N4C5CCC4CC(CN4CCC(n6ncc7c(N8CCC(=O)NC8=O)cccc76)CC4)C5)nn3)CC2)cc1Cl (some centres unmarked) [EAR230, N-((1r,4r)-4-(3-chloro-4-cyanophenoxy)cyclohexyl)-6-(3-((4-(4-(2,4-dioxotetrahydropyrimidin-1(2H)-yl)-1H-indazol-1-yl)piperidin-1-yl)methyl)-8-azabicyclo[3.2.1]octan-8-yl)pyridazine-3-carboxamide] | ≥ 50

Next, values leading:

Row | Dmax [%] | Structure (SMILES)
12 | ≥ 50 | N#Cc1ccc(O[C@H]2CC[C@H](NC(=O)c3ccc(N4CCOC(CCN5CCC(n6ncc7c(N8CCC(=O)NC8=O)cccc76)CC5)C4)nn3)CC2)cc1Cl (some centres unmarked) [EAR243, N-((1r,4r)-4-(3-chloro-4-cyanophenoxy)cyclohexyl)-6-(2-(2-(4-(4-(2,4-dioxotetrahydropyrimidin-1(2H)-yl)-1H-indazol-1-yl)piperidin-1-yl)ethyl)morpholino)pyridazine-3-carboxamide]
13 | ≥ 50 | N#Cc1ccc(O[C@H]2CC[C@H](NC(=O)c3ccc(N4CCC(CN5CCC(n6ncc7c(N8CCC(=O)NC8=O)nccc76)CC5)CC4)cc3)CC2)cc1Cl [EAR199, N-((1r,4r)-4-(3-Chloro-4-cyanophenoxy)cyclohexyl)-4-(4-((4-(4-(2,4-dioxotetrahydropyrimidin-1(2H)-yl)-1H-pyrazolo[4,3-c]pyridin-1-yl)piperidin-1-yl)methyl)piperidin-1-yl)benzamide]
14 | ≥ 50 | N#Cc1ccc(O[C@H]2CC[C@H](NC(=O)c3ccc(CCN4CCC(n5ccc6c(N7CCC(=O)NC7=O)cccc65)CC4)cc3)CC2)cc1Cl [EAR130, N-((1r,4r)-4-(3-Chloro-4-cyanophenoxy)cyclohexyl)-4-(2-(4-(4-(2,4-dioxotetrahydropyrimidin-1(2H)-yl)-1H-indol-1-yl)piperidin-1-yl)ethyl)benzamide]
15 | ≥ 50 | N#Cc1ccc(O[C@H]2CC[C@H](NC(=O)c3ccc(N4CCC(CN5CCC(n6ncc7c(N8CCC(=O)NC8=O)cc(C(F)(F)F)cc76)CC5)CC4)nn3)CC2)cc1Cl [EAR161, N-((1r,4r)-4-(3-Chloro-4-cyanophenoxy)cyclohexyl)-6-(4-((4-(4-(2,4-dioxotetrahydropyrimidin-1(2H)-yl)-6-(trifluoromethyl)-1H-indazol-1-yl)piperidin-1-yl)methyl)piperidin-1-yl)pyridazine-3-carboxamide]
16 | ≥ 50 | N#Cc1ccc(O[C@H]2CC[C@H](NC(=O)c3ccc(N4CCC(CN5CC[C@@H](n6ccc7c(N8CCC(=O)NC8=O)cccc76)C5)CC4)nn3)CC2)cc1Cl [EAR172, N-((1r,4r)-4-(3-Chloro-4-cyanophenoxy)cyclohexyl)-6-(4-(((S)-3-(4-(2,4-dioxotetrahydropyrimidin-1(2H)-yl)-1H-indol-1-yl)pyrrolidin-1-yl)methyl)piperidin-1-yl)pyridazine-3-carboxamide, hydrochloride]
17 | ≥ 50 | N#Cc1ccc(O[C@H]2CC[C@H](NC(=O)c3ccc(N4CCN(CC(=O)N5CCC(n6ccc7c(N8CCC(=O)NC8=O)cccc76)CC5)CC4)nn3)CC2)cc1Cl [EAR134, N-((1r,4r)-4-(3-Chloro-4-cyanophenoxy)cyclohexyl)-6-(4-(2-(4-(4-(2,4-dioxotetrahydropyrimidin-1(2H)-yl)-1H-indol-1-yl)piperidin-1-yl)-2-oxoethyl)piperazin-1-yl)pyridazine-3-carboxamide]
18 | ≥ 50 | N#Cc1ccc(O[C@H]2CC[C@H](NC(=O)c3ccc(N4CCC(CN5CC6(CC(n7ccc8c(N9CCC(=O)NC9=O)cccc87)C6)C5)CC4)nn3)CC2)cc1Cl [EAR173, N-((1r,4r)-4-(3-Chloro-4-cyanophenoxy)cyclohexyl)-6-(4-((6-(4-(2,4-dioxotetrahydropyrimidin-1(2H)-yl)-1H-indol-1-yl)-2-azaspiro[3.3]heptan-2-yl)methyl)piperidin-1-yl)pyridazine-3-carboxamide]
19 | ≥ 50 | CN(CCCCCN1CCC(n2ncc3c(N4CCC(=O)NC4=O)cccc32)CC1)c1ccc(C(=O)N[C@H]2CC[C@H](Oc3ccc(C#N)c(Cl)c3)CC2)nn1 [EAR220, N-((1r,4r)-4-(3-chloro-4-cyanophenoxy)cyclohexyl)-6-((5-(4-(4-(2,4-dioxotetrahydropyrimidin-1(2H)-yl)-1H-indazol-1-yl)piperidin-1-yl)pentyl)(methyl)amino)pyridazine-3-carboxamide]
20 | ≥ 50 | N#Cc1ccc(O[C@H]2CC[C@H](NC(=O)c3ccc(N4CCC(CN5CCC(c6ncc7c(N8CCC(=O)NC8=O)cccn67)CC5)CC4)nn3)CC2)cc1Cl [EAR177, N-((1r,4r)-4-(3-Chloro-4-cyanophenoxy)cyclohexyl)-6-(4-((4-(8-(2,4-dioxotetrahydropyrimidin-1(2H)-yl)imidazo[1,5-a]pyridin-3-yl)piperidin-1-yl)methyl)piperidin-1-yl)pyridazine-3-carboxamide]
